SMILES strings stand for the structures. Where “and” joins values, the source holds several entries; their conditions need not be identical. Equal entries are not always repeated. Inconclusive results and toxic doses are left out. Residues, ends and D or L forms follow the SMILES beside them. *: point of attachment. Cbz = O=C(OCc1ccccc1)*; OtBu = CC(C)(C)O*

This passage reports T/C results from PubChem BioAssay AID328 (DTP/NCI, 2004).

In the assay the test system is BDF1 mice, P388 leukemia ip, median survival T/C. Briefly: NCI In Vivo Anticancer Drug Screen. Data for tumor model P388 Leukemia (intraperitoneal) in B6D2F1 (BDF1) mice. The following applies: endpoint: median survival time, higher = longer survival. In outline: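 Compound-treated tumour-bearing mice were compared with vehicle-treated controls. Survival was recorded, and the value is the treated-group measurement divided by the control-group measurement (T/C).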

[1] abbreviates: dose: 50.0 mg/kg/injection, schedule: Q04DX003 (ip), vehicle: saline with Tween-80.
Where [2] appears, read: dose: 100.0 mg/kg/injection, schedule: Q04DX003 (ip), vehicle: saline with Tween-80.
The mark [3] stands for this setting: dose: 200.0 mg/kg/injection, schedule: Q04DX003 (ip), vehicle: saline with Tween-80.
Setting [4] is: dose: 50.0 mg/kg/injection, schedule: Q01DX009 (ip), vehicle: saline.
[5] abbreviates: dose: 100.0 mg/kg/injection, schedule: Q01DX009 (ip), vehicle: saline.
Where [6] appears, read: dose: 100.0 mg/kg/injection, schedule: Q01DX001 (ip), vehicle: saline with Tween-80.
Where [7] appears, read: dose: 200.0 mg/kg/injection, schedule: Q01DX001 (ip), vehicle: saline with Tween-80.
Setting [8] is: dose: 400.0 mg/kg/injection, schedule: Q01DX001 (ip), vehicle: saline with Tween-80.
[9] abbreviates: dose: 100.0 mg/kg/injection, schedule: Q04DX003 (ip), vehicle: Klucel (hydroxypropylcellulose) (HPC).
Where [10] appears, read: dose: 200.0 mg/kg/injection, schedule: Q04DX003 (ip), vehicle: Klucel (hydroxypropylcellulose) (HPC).
Setting [11] is: dose: 400.0 mg/kg/injection, schedule: Q04DX003 (ip), vehicle: Klucel (hydroxypropylcellulose) (HPC).
Setting [12] is: dose: 25.0 mg/kg/injection, schedule: Q01DX009 (ip), vehicle: saline with Tween-80.
The mark [13] stands for this setting: dose: 50.0 mg/kg/injection, schedule: Q01DX009 (ip), vehicle: saline with Tween-80.
Where [14] appears, read: dose: 100.0 mg/kg/injection, schedule: Q01DX009 (ip), vehicle: saline with Tween-80.
The mark [15] stands for this setting: dose: 200.0 mg/kg/injection, schedule: Q01DX009 (ip), vehicle: saline with Tween-80.
Setting [16] is: dose: 25.0 mg/kg/injection, schedule: Q04DX003 (ip), vehicle: saline with Tween-80.
[17] abbreviates: dose: 100.0 mg/kg/injection, schedule: Q01DX009 (ip), vehicle: Klucel (hydroxypropylcellulose) (HPC).
Where [18] appears, read: dose: 400.0 mg/kg/injection, schedule: Q04DX003 (ip), vehicle: saline with Tween-80.

For `O=S(=O)(O)c1ccc(-c2ccc(S(=O)(=O)O)cc2)cc1` (tested in a mixture with another compound), the T/C is 200 % of control (dose: 21.0 mg/kg/injection, schedule: Q04DX003 (ip), vehicle: saline); 270 % of control (dose: 33.0 mg/kg/injection, schedule: Q04DX003 (ip), vehicle: saline); 300 % of control (dose: 50.0 mg/kg/injection, schedule: Q04DX003 (ip), vehicle: saline); 300 % of control (dose: 110.0 mg/kg/injection, schedule: Q04DX003 (ip), vehicle: saline).

As to `C1=CC2C3=CC1C=CC32` (centres undefined), the T/C by setting is: (dose: 18.75 mg/kg/injection, schedule: Q04DX003 (ip), vehicle: Klucel (hydroxypropylcellulose) (HPC)) 91 % of control; (dose: 37.5 mg/kg/injection, schedule: Q04DX003 (ip), vehicle: Klucel (hydroxypropylcellulose) (HPC)) 95 % of control; (dose: 75.0 mg/kg/injection, schedule: Q04DX003 (ip), vehicle: Klucel (hydroxypropylcellulose) (HPC)) 91 % of control.

As for `CSCC(NC(=O)OCc1ccccc1)C(=O)O` (centres undefined), the T/C was 95 % of control under setting [1], 109 % of control under setting [2] and 100 % of control under setting [3].

Regarding `C=C1C(=O)OC2CC3(C)CC(O)C(O)C(=C)C3CC12` (centres undefined), the T/C is, setting by setting: (dose: 25.0 mg/kg/injection, schedule: Q01DX009 (ip), vehicle: saline) 104 % of control; under setting [4], 104 % of control; under setting [5], 104 % of control.

On to `COc1cc(Nc2nc(N)ncc2N)cc(OC)c1OC`, for which the T/C under setting [6] is 91 % of control, the T/C under setting [7] is 91 % of control and the T/C under setting [8] is 100 % of control.

For `S=c1nc[nH]c2ccccc12`, the T/C is 109 % of control under setting [9], 122 % of control under setting [10] and 109 % of control under setting [11].

Regarding `C1CSCCSCCCSCCSC1`, the T/C is, setting by setting: under setting [12], 98 % of control; under setting [13], 102 % of control; under setting [14], 118 % of control.

In the case of `OC(CC(O)(C(F)(F)F)C(F)(F)F)c1cccc(C(F)(F)F)c1` (centres undefined), the T/C is 100 % of control (dose: 100.0 mg/kg/injection, schedule: Q04DX003 (ip), vehicle: other); 104 % of control (dose: 200.0 mg/kg/injection, schedule: Q04DX003 (ip), vehicle: other); 95 % of control (dose: 400.0 mg/kg/injection, schedule: Q04DX003 (ip), vehicle: other).

In the case of `CC[C@@H](c1ccc(O)cc1)[C@@H](CC)c1ccc(O)cc1`, the T/C under setting [4] is 90 % of control; the T/C under setting [5] is 109 % of control; the T/C (dose: 100.0 mg/kg/injection, schedule: Q04DX003 (ip), vehicle: alcohol) was 94 % of control; the T/C (dose: 200.0 mg/kg/injection, schedule: Q04DX003 (ip), vehicle: alcohol) is 100 % of control.

For `COC(=O)/C(N=Nc1cccc(C)c1)=C(\C)O`, the T/C is, setting by setting: under setting [13], 97 % of control; under setting [14], 103 % of control.

In the case of `COC(=O)C(CCC(=O)OC(C)(C)C)NC(=O)C(NC(=O)OCc1ccccc1)C(C)C` (stereo not drawn) (Cbz-Val-Glu(OtBu)-OMe; configuration not given here), the T/C under setting [14] is 100 % of control; the T/C under setting [15] was 100 % of control; the T/C (dose: 400.0 mg/kg/injection, schedule: Q01DX009 (ip), vehicle: saline with Tween-80) is 95 % of control.

Regarding `Oc1ccc2ccccc2c1/C=N\Sc1ccc(Br)cc1`, the T/C reads like this: under setting [16], 103 % of control; under setting [1], 100 % of control; under setting [2], 112 % of control.

For the molecule `CCOC(=O)c1[nH]c2c(c1CC(CC)[N+](=O)[O-])CCCC2` (centres undefined), the T/C reads like this: under setting [9], 95 % of control; under setting [10], 100 % of control; under setting [11], 91 % of control.

Consider `CCCCCCCCCCCCCCCCCCOC(=O)Cc1ccc(N(CCCl)CCCl)cc1`, for which the T/C (dose: 50.0 mg/kg/injection, schedule: Q04DX002 (ip), vehicle: Klucel (hydroxypropylcellulose) (HPC)) is 123 % of control; the T/C (dose: 66.0 mg/kg/injection, schedule: Q01DX007 (ip), vehicle: Klucel (hydroxypropylcellulose) (HPC)) is 153 % of control; the T/C (dose: 100.0 mg/kg/injection, schedule: Q01DX007 (ip), vehicle: Klucel (hydroxypropylcellulose) (HPC)) is 165 % of control; the T/C under setting [17] was 150 % of control; the T/C (dose: 100.0 mg/kg/injection, schedule: Q04DX002 (ip), vehicle: Klucel (hydroxypropylcellulose) (HPC)) is 104 % of control; the T/C under setting [9] is 113 % of control. Besides, the T/C (dose: 150.0 mg/kg/injection, schedule: Q01DX007 (ip), vehicle: Klucel (hydroxypropylcellulose) (HPC)) was 173 % of control; the T/C (dose: 180.0 mg/kg/injection, schedule: Q04DX003 (ip), vehicle: saline with Tween-80) is 100 % of control; the T/C under setting [10] is 118 % of control; the T/C (dose: 400.0 mg/kg/injection, schedule: Q01DX009 (ip), vehicle: Klucel (hydroxypropylcellulose) (HPC)) is 123 % of control; the T/C (dose: 400.0 mg/kg/injection, schedule: Q04DX002 (ip), vehicle: Klucel (hydroxypropylcellulose) (HPC)) was 180 % of control; the T/C under setting [11] is 250 % of control and 159 % of control. Besides, the T/C by setting is: under setting [18], 166 % of control; (dose: 600.0 mg/kg/injection, schedule: Q04DX003 (ip), vehicle: Klucel (hydroxypropylcellulose) (HPC)) 208 % of control; (dose: 600.0 mg/kg/injection, schedule: Q04DX003 (ip), vehicle: saline with Tween-80) 150 % of control.

Turning to `COc1cc2c(c(OC)c1OC)CC/C(=C\O)C2=O`, the T/C runs as follows: (dose: 50.0 mg/kg/injection, schedule: Q01DX009 (ip), vehicle: Klucel (hydroxypropylcellulose) (HPC)) 112 % of control; under setting [17], 114 % of control; (dose: 200.0 mg/kg/injection, schedule: Q01DX009 (ip), vehicle: Klucel (hydroxypropylcellulose) (HPC)) 106 % of control.

As to `c1ccc(P(OC2CCCCC2)OC2CCCCC2)cc1`, the T/C reads like this: under setting [13], 109 % of control; under setting [14], 109 % of control; under setting [15], 110 % of control.

As for `O=C1c2ccccc2CC1(Cl)Cl`, the T/C reads like this: under setting [6], 101 % of control; under setting [7], 96 % of control; under setting [8], 101 % of control.

For the molecule `CC/C(C)=N/Nc1nncn2c1cc1ccccc12`, the T/C runs as follows: under setting [13], 94 % of control; under setting [14], 100 % of control; under setting [15], 97 % of control.

For the molecule `CCOC(=O)c1nnc(-c2ccccc2)c(-c2ccccc2)n1`, the T/C was 104 % of control under setting [2], 96 % of control under setting [3] and 89 % of control under setting [18].

As for `S=c1nc[nH]c2c1ccc1[nH]cnc12`, the T/C is, setting by setting: (dose: 12.5 mg/kg/injection, schedule: Q01DX005 (ip), vehicle: saline with Tween-80) 99 % of control; (dose: 25.0 mg/kg/injection, schedule: Q01DX005 (ip), vehicle: saline with Tween-80) 100 % of control; (dose: 50.0 mg/kg/injection, schedule: Q01DX005 (ip), vehicle: saline with Tween-80) 99 % of control and 107 % of control; (dose: 100.0 mg/kg/injection, schedule: Q01DX005 (ip), vehicle: saline with Tween-80) 90 % of control; (dose: 200.0 mg/kg/injection, schedule: Q01DX005 (ip), vehicle: saline with Tween-80) 104 % of control.

Turning to `Cn1ncc2c(NCc3ccc(Cl)cc3)ncnc21`, the T/C (dose: 6.25 mg/kg/injection, schedule: Q01DX009 (ip), vehicle: saline with Tween-80) was 97 % of control; the T/C (dose: 12.5 mg/kg/injection, schedule: Q01DX009 (ip), vehicle: saline with Tween-80) was 101 % of control; the T/C under setting [12] was 93 % of control; the T/C under setting [13] was 97 % of control.

Turning to `O=C(O)CNCc1ccc(Cl)cc1`, the T/C is, setting by setting: (dose: 50.0 mg/kg/injection, schedule: Q04DX003 (ip), vehicle: water) 103 % of control; (dose: 100.0 mg/kg/injection, schedule: Q04DX003 (ip), vehicle: water) 90 % of control; (dose: 200.0 mg/kg/injection, schedule: Q04DX003 (ip), vehicle: water) 94 % of control.

Regarding `CCOC(=O)CCSc1ccccc1`, the T/C was 98 % of control under setting [16] and 95 % of control under setting [1].
